Tests used:
Balb/C mice [1] = test: Luc expression in injection site and liver site after intramuscular administration (Example 5); assay type: in vivo; conditions: 5 μg Luc mRNA-LNP (DSPC) intramuscularly, Balb/C mice n=3, 6 h
Description: Further bioluminescence studies were performed to investigate the delivery efficiency of nanoparticle compositions including various lipid compounds according to the present invention. The formulations containing reference cationic lipid M62, M63, M118, and M119 (corresponding to Compound 62, 63, 118, and 119 in PCT/US2018/022717 (WO2018/170306), respectively) were evaluated for comparison. Nanoparticle compositions including DSPC as an optimized phospholipid, cholesterol as a structural lipid, PEG-DMG as a PEG lipid, an RNA, and a compound above mentioned were prepared according to or via methods similar to those described in Examples 1 and 2. The ratios of the lipids were 50:10:38.5:1.5 mol % for the lipid of the present invention: DSPC: cholesterol: PEG-DMG. 5 μg of LNP solution containing luciferase mRNA was administered intramuscularly to Balb/C mice (n=3). 6 hours after administration, mice were injected intraperitoneally with 0.15 mg/kg of D-luciferin substrate. Within 15 minutes after the injection of the substrate, the fluorescence signal intensity in injection site and liver site were tested under a small animal in vivo imaging instrument. Tables 3-4 summarize the fluorescence signal intensity of the nanoparticle compositions including present invention lipids and the reference compounds in injection site and liver site.

A20 cells = test: In vitro cell Luc expression, A20; assay type: cell-based; conditions: 100 ng Luc mRNA-LNP, 24 h
Description: (§1) In vitro cell expression evaluation method: C2C12 cells, HepG2 cells, A20 cells were cultured, and 100,000 cells per well were plated on a 96-well plate. 100 ng of LNP samples were mixed with the cells and incubated for 24 hours (n=3), and then the expression was detected using luciferase quantitative kit 24 h after administration.

[2] = Encapsulation efficiency (RIBOGREEN kit); assay type: physicochemical; conditions: Luc mRNA-LNP 50:10:38.5:1.5
Description: For nanoparticle compositions including an RNA, a QUANT-IT™ RIBOGREENR®RNA assay (Invitrogen Corporation Carlsbad, Calif.) can be used to evaluate the encapsulation of an RNA by the nanoparticle composition. The samples were diluted to a concentration of approximately 5 μg/mL in a TE buffer solution (10 mM Tris-HCl, 1 mM EDTA, pH 7.5). 50 μL of the diluted samples are transferred to a polystyrene 96 well plate and either 50 μL of TE buffer or 50 μL of a 2% Triton X-100 solution is added to the wells. The plate is incubated at a temperature of 37° C. for 15 minutes. The RIBOGREENR reagent is diluted 1:100 in TE buffer and 100 μL of this solution is added to each well. The fluorescence intensity can be measured using a fluorescence plate reader (Wallac Victor 1420 Multilablel Counter; Perkin Elmer, Waltham, Mass.) at an excitation wavelength of, for example, about 480 nm and an emission wavelength of, for example, about 520 nm. The fluorescence values of the reagent blank are subtracted from that of each of the samples and the percentage of free RNA is determined by dividing the fluorescence intensity of the intact sample (without addition of Triton X-100) by the fluorescence value of the disrupted sample (caused by the addition of Triton X-100).
Encapsulation efficiency detection method: LNP content and encapsulation efficiency detection were carried out according to the RIBOGREEN kit.

Balb/C mice [3] = test: In vivo Luc expression after intramuscular injection, compared with MC3 (Example 4); conditions: 5 μg Luc mRNA-LNP (DSPC) intramuscularly, Balb/C mice n=3, 6 hours; for in vivo Luc expressions (FIG. 2): compared with MC3
Description: The mRNA nanoparticle compositions of SW-II-118, SW-120, and SW-121 were prepared according to the method provided in Example 3. The ratios of the lipids were 50:10:38.5:1.5 mol % for cationic lipid: DSPC: cholesterol: PEG-DMG. The cationic lipid MC3 was a current standard in the art. Accordingly, the standard MC3 formulation including 50 mol % MC3, 10 mol % DSPC, 38.5 mol % cholesterol, and 1.5 mol % PEG-DMG was used as a reference for this study.
5 μg of Luc mRNA-LNP of MC3, SW-II-118, SW-II-120, or SW-II-121 was intramuscularly injected into Balb/C mice (n=3). 6 hours after the administration, the mice were injected intraperitoneally with 0.15 mg/kg […] substrate. 15 minutes after the injection of the substrate, the fluorescence signal intensity was tested under a small animal in vivo imaging instrument.

cells = test: Cytotoxicity, CCK-8 cell viability; assay type: cell-based; conditions: 200 ng LNP, 24 h, CCK-8, vs cells blank
Description: Evaluation method of cytotoxicity: 200 ng of LNP samples were mixed with cells and incubated for 24 h, then the viability was detected using CCK-8 cell viability detection kit. 10 μl of CCK-8 detection reagent was added to the transfected cells and the OD value was detected using a microplate reader at a detection wavelength of 450 nm. The cell viability percentage is obtained by comparing the OD value with that of the cells blank.

Balb/C mice [4] = test: In vivo Luc expression after tail vein injection of Luc mRNA-LNP; conditions: 5 μg Luc mRNA-LNP tail vein, 6 hours
Description: In vivo expression evaluation method: 5 μg Luc (luciferase) mRNA-LNP solution of SW-II-118, SW-120, or SW-121 were injected into the tail vein of Balb/C mice. 6 hours after the administration, the mice are injected 0.15 mg/kg of […] substrate intraperitoneally. Within 15 minutes after the injection of the substrate, the fluorescence signal intensity was tested under a small animal in vivo imaging instrument.

HepG2 cells = test: In vitro cell Luc expression, HepG2; assay type: cell-based; conditions: 100 ng Luc mRNA-LNP, 24 h
Description: as §1

SMILES | Luc expression in injection site, I.M. injection site, 6 h (ratio relative to SW-II-134-3 set as 1) (Balb/C mice [1]) | Luc expression in liver site, Liver site upon I.M., 6 h (ratio relative to SW-II-137-1 set as 1) (Balb/C mice [1]) | A20 cell, in vitro expression (A20 cells; phospholipid DAPC) | A20 cell, in vitro expression (A20 cells; phospholipid DMPE) | A20 cell, in vitro expression (A20 cells; phospholipid DOPE) | A20 cell, in vitro expression (A20 cells; phospholipid DPPC) | A20 cell, in vitro expression (A20 cells; phospholipid DPPE) | A20 cell, in vitro expression (A20 cells; phospholipid DSPC) | A20 cell, in vitro expression (A20 cells; phospholipid DSPE) | Encapsulation Efficiency (EE, %) ([2]; phospholipid DAPC) [%] | Encapsulation Efficiency (EE, %) ([2]; phospholipid DMPE) [%] | Encapsulation Efficiency (EE, %) ([2]; phospholipid DOPE) [%] | Encapsulation Efficiency (EE, %) ([2]; phospholipid DPPC) [%] | Encapsulation Efficiency (EE, %) ([2]; phospholipid DPPE) [%] | Encapsulation Efficiency (EE, %) ([2]; phospholipid DSPC) [%] | Luc expression in liver site compared with injection site (FIG. 2) (Balb/C mice [3]) | in vivo Luc expressions (FIG. 2) (Balb/C mice [3]) | Viability (%) (cells; phospholipid DAPC) | Viability (%) (cells; phospholipid DMPE) | Viability (%) (cells; phospholipid DOPE) | other results
CCCCCCCCC(CCCCCCCC)OC(=O)CCCCCCCN(CCO)CCCCCCCC(=O)OCCc1ccc(CCCCCCC)cc1 [SW-II-121] | 1.440 | 2.150 | 1744.5 | 9110.5 | 4244.5 | 9098 | 27832 | 8006.5 | 508.5 | 76.6 | 70.9 | 81.5 | 86.7 | 84.0 | 86.0 | higher than that in injection site | higher than that of MC3 | 111.1 | 108.5 | 107.5 | Encapsulation Efficiency (EE, %) ([2]; phospholipid DSPE): 68.5%; Viability (%) (cells; phospholipid DPPC): 109.64%; Viability (%) (cells; phospholipid DPPE): 108.0%; Viability (%) (cells; phospholipid DSPC): 123.3%; Viability (%) (cells; phospholipid DSPE): 137.0%; In vivo expression (Balb/C mice [4]; phospholipid DAPC): 156336666.7 p/sec/cm^2/sr; In vivo expression (Balb/C mice [4]; phospholipid DMPE): 78216666.7 p/sec/cm^2/sr; In vivo expression (Balb/C mice [4]; phospholipid DOPE): 47516666.7 p/sec/cm^2/sr; In vivo expression (Balb/C mice [4]; phospholipid DPPC): 36323333.3 p/sec/cm^2/sr; In vivo expression (Balb/C mice [4]; phospholipid DPPE): 46183333.3 p/sec/cm^2/sr; In vivo expression (Balb/C mice [4]; phospholipid DSPC): 12494333.3 p/sec/cm^2/sr; In vivo expression (Balb/C mice [4]; phospholipid DSPE): 19344666.7 p/sec/cm^2/sr; HepG2 cell, in vitro expression (HepG2 cells; phospholipid DAPC): 3110; HepG2 cell, in vitro expression (HepG2 cells; phospholipid DMPE): 16466; HepG2 cell, in vitro expression (HepG2 cells; phospholipid DOPE): 42994.5; HepG2 cell, in vitro expression (HepG2 cells; phospholipid DPPC): 16064; HepG2 cell, in vitro expression (HepG2 cells; phospholipid DPPE): 25349.5; HepG2 cell, in vitro expression (HepG2 cells; phospholipid DSPC): 7932; HepG2 cell, in vitro expression (HepG2 cells; phospholipid DSPE): 1211.5
CCCCCCCCC(CCCCCCCC)OC(=O)CCCCCCCN(CCO)CCCCCCCC(=O)OCCc1ccc(CCCCCC)cc1 [SW-II-120] | 1.064 | 1.318 | 1764 | 37055.5 | 3578 | 7015 | 54823 | 8101.5 | 1599 | 84.3 | 86.2 | 90.9 | 84.9 | 64.7 | 85.3 | higher than that in injection site | higher than that of MC3 | 99.0 | 87.9 | 115.0 | Viability (%) (cells; phospholipid DPPC): 102.9%; Viability (%) (cells; phospholipid DPPE): 107.1%; Viability (%) (cells; phospholipid DSPC): 102.3%; Viability (%) (cells; phospholipid DSPE): 97.9%; In vivo expression (Balb/C mice [4]; phospholipid DAPC): 39073333.3 p/sec/cm^2/sr; In vivo expression (Balb/C mice [4]; phospholipid DMPE): 49736666.7 p/sec/cm^2/sr; In vivo expression (Balb/C mice [4]; phospholipid DOPE): 5083666.7 p/sec/cm^2/sr; In vivo expression (Balb/C mice [4]; phospholipid DPPC): 21307300.0 p/sec/cm^2/sr; In vivo expression (Balb/C mice [4]; phospholipid DPPE): 7056000.0 p/sec/cm^2/sr; In vivo expression (Balb/C mice [4]; phospholipid DSPC): 58040000.0 p/sec/cm^2/sr; In vivo expression (Balb/C mice [4]; phospholipid DSPE): 128056666.7 p/sec/cm^2/sr; HepG2 cell, in vitro expression (HepG2 cells; phospholipid DAPC): 4555.5; HepG2 cell, in vitro expression (HepG2 cells; phospholipid DMPE): 31448.5; HepG2 cell, in vitro expression (HepG2 cells; phospholipid DOPE): 83649.5; HepG2 cell, in vitro expression (HepG2 cells; phospholipid DPPC): 24199.5; HepG2 cell, in vitro expression (HepG2 cells; phospholipid DPPE): 57343; HepG2 cell, in vitro expression (HepG2 cells; phospholipid DSPC): 13068; HepG2 cell, in vitro expression (HepG2 cells; phospholipid DSPE): 2482

From patent US20230263742A1, “A LIPID” (Stemirna Therapeutics Co., Ltd., priority 2021, published 2023)
